Values joined by “and” are separate entries in the source; they are usually repeats but may differ in a detail not shown here. Identical values can stand only once.
What was measured:
hGal1 [1] = system: hGal1; set-up: method as in PMID 23124203; settings: in the presence of λ5-UR peptide of pre-BCR; cited from earlier work
hGal3-E165A = molecular target: T1, hGal3-E165A (Homo sapiens, UniProt P17931, E165A); assay: Biolayer interferometry, LN1/LN2 binding affinity; settings: for Reduction of binding affinity of hGal3-E165A: hGal3-E165A versus wild-type hGal3, from Table 1 Kd BI; for Kd: Biolayer Interferometry at 300 K, steady-state, read-out: Dissociation constant Kd (Kd BI)
T1 construct: the full-length hGal1 (residues 1–135), 3 (residues 1–250); 6xHis (N); made in house; host or cells: Escherichia coli BL21 (DE3)
From the text: (§1) Using a standard PCR-based cloning strategy, the coding region of the full-length hGal1 (residues 1–135), 3 (residues 1–250), 7 (residues 1–136) and CRD domain of hGal3 (residues 113–250) were generated and inserted into modified pET-15b (hGal1, hGal3 and hGal3-CRD) or pET-28a (hGal7) vector (Novagen) with in-frame N- and C-terminal 6xHis-tag, respectively. QuikChange mutagenesis method (Agilent Technologies) was applied to replace the corresponding codons of residues Glu165 and Arg186 in full-length hGal3 with Ala codon to allow the expression of mutant proteins hGal3-E165A and hGal3-R186A. All the wild type and mutated proteins were produced in Escherichia coli BL21 (DE3), with 0.5 mM IPTG induction for 16 h at 20 °C. Recombinant proteins were purified by Ni^2+-affinity and size-exclusion chromatography to homogeneity. Purified proteins were then stored in gel-filtration buffer (25 mM Tris-HCl pH8.0, 300 mM NaCl and 5 mM β-mercaptoethanol) and concentrated to ~ 4, 20 and 9 mg/ml as determined by the method of Bradford for both Biolayer interferometry experiments and crystallization trials, respectively.
(§2) Specifically, biotinylated galectins were prepared according to the standard protocol (provided by FortéBio), and adjusted to final concentration of 1 μM in assay buffer condition (50 mM Tris-HCl pH 7.5, 300 mM NaCl and 5 mM β-mercaptoethanol). Biotinylated galectins were then immobilized on Super Streptavidin Biosensors (FortéBio, Inc.), while free streptavidin sites on biosensor were then blocked by incubation with biocytin (10 mg/ml) to avoid non-specific interactions. […] Measurements were followed by 120 sec baseline step, 60 sec association step and 200 sec dissociation step. Baseline and dissociation steps were carried out in assay buffer only. All the data were processed and calculated using Fortebio software and the steady-state K d values were derived from equilibrium responses (S1 Fig) and summarized in Table 1. Two additional parallel Super Streptavidin biosensors were coated with biotinylated galectin and biocytin, separately, and only incubated with assay buffer as double reference controls.

hGal3-R186A = molecular target: T2, hGal3-R186A (Homo sapiens, UniProt P17931, R186A); assay: Biolayer interferometry, LN1/LN2 binding affinity; settings: hGal3-R186A mutant
T2 construct: the full-length hGal1 (residues 1–135), 3 (residues 1–250); 6xHis (N); made in house; host or cells: Escherichia coli BL21 (DE3)
From the text: as §1, §2

human galectin-1 (hGal1) [2] = molecular target: T3, human galectin-1 (hGal1) (Homo sapiens, UniProt P09382); assay: Biolayer interferometry, LN1/LN2 binding affinity; settings: for Kd: Biolayer Interferometry at 300 K, steady-state, read-out: Dissociation constant Kd (Kd BI)
T3 construct: the full-length hGal1 (residues 1–135); 6xHis (N); made in house; host or cells: Escherichia coli BL21 (DE3)
From the text: as §1, §2

[3] = molecular target: T4, human galectin-3 (hGal3, full-length) (Homo sapiens, UniProt P17931); assay: Biolayer interferometry, LN1/LN2 binding affinity; settings: for Kd: Biolayer Interferometry at 300 K, steady-state, read-out: Dissociation constant Kd (Kd BI)
T4 construct: the full-length hGal1 (residues 1–135), 3 (residues 1–250); 6xHis (N); made in house; host or cells: Escherichia coli BL21 (DE3)
From the text: as §1, §2

human galectin-7 (hGal7) [4] = molecular target: T5, human galectin-7 (hGal7) (Homo sapiens, UniProt P47929); assay: Biolayer interferometry, LN1/LN2 binding affinity; settings: for Kd: Biolayer Interferometry at 300 K, steady-state, read-out: Dissociation constant Kd (Kd BI)
T5 construct: 7 (residues 1–136); 6xHis (C); made in house; host or cells: Escherichia coli BL21 (DE3)
From the text: as §1, §2

human galectin-1 (hGal1) [5] = molecular target: T3, human galectin-1 (hGal1); assay: Fluorescence polarization (FP)-based competition binding assay; settings: for Kd: fluorescence anisotropy at 277 K, competition with LN2-FITC probe, read-out: Dissociation constant Kd (Kd FP)
Description: (§3) The measurement of FP-based assay is based on the rotation speed of a fluorophore-containing compound bound to the protein counterpart (e.g. galectins in this study). The fluorophore rotates at a slower rate than when it is unbound, and the resulting fluorescence polarization is higher. In this study we carried out all measurements according to reported procedures. […] All the measurements were conducted in Tris buffer (12.5 mM, pH 7.4) with 200 mM NaCl and 5 mM β-mercaptoethanol at 4 °C. Data plotting, nonlinear regression analysis, and curve construction was done by Prism 5.0 software (GraphPad, San Diego, CA).
(§4) The measured anisotropy value with competitor (Acompetitor) is used to calculate the amount of galectin-bound probe [PG] according to equation:
(§5) [PG]=[(Acompetitor−A0)∕(Amax−A0)]×[P]total.−

human galectin-3 (hGal3) = molecular target: T6, human galectin-3 (hGal3) (Homo sapiens, UniProt P17931); assay: as above; settings: for Kd: fluorescence anisotropy at 277 K, competition with LN2-FITC probe, read-out: Dissociation constant Kd (Kd FP)
T6 construct: the full-length hGal1 (residues 1–135), 3 (residues 1–250); 6xHis (N); made in house; host or cells: Escherichia coli BL21 (DE3)
Description: as §3, §4, §5

human galectin-7 (hGal7) [6] = molecular target: T5, human galectin-7 (hGal7); assay: as above; settings: for Kd: fluorescence anisotropy at 277 K, competition with LN2-FITC probe, read-out: Dissociation constant Kd (Kd FP)
Description: as §3, §4, §5

hGal1 [7] = system: hGal1; set-up: method as in PMID 12223272; settings: LN1 versus LN2; cited from earlier work
CRD domain of hGal3 = system: CRD domain of hGal3; set-up: method as in PMID 12223272; settings: CRD domain used instead of full-length hGal3; LN1 versus LN2; cited from earlier work
hGal7 = system: hGal7; set-up: method as in PMID 12223272; settings: cited from earlier work
rat galectin-2 = system: rat galectin-2; set-up: method as in PMID 12223272; settings: cited from earlier work
hGal3 = system: hGal3; set-up: method as in PMID 21949831; settings: cited from earlier work
hGal1 [8] = system: hGal1; set-up: method as in PMID 21949831; settings: cited from earlier work
[9] = based on Kd BI values, LN1 versus LN2
[10] = based on Kd FP values, LN1 versus LN2

T5 sequence (P47929 whole entry, the tested form may be a part): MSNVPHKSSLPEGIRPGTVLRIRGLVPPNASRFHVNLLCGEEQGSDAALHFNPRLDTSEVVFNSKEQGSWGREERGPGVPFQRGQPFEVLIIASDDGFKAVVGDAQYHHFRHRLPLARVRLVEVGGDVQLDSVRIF
T1 sequence (P17931 whole entry E165A, the tested form may be a part): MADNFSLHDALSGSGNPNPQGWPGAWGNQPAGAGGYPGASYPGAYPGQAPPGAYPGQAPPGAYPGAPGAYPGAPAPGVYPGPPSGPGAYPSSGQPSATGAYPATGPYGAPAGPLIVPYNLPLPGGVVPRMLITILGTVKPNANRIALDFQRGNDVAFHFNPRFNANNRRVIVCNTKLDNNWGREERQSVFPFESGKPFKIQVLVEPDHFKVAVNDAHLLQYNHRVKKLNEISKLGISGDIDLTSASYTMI
T4 sequence (P17931 whole entry, the tested form may be a part): as the sequence (P17931 whole entry E165A, the tested form may be a part) above, with A165E counted along it
T6 sequence (P17931 whole entry, the tested form may be a part): as the sequence (P17931 whole entry E165A, the tested form may be a part) above, with A165E counted along it
T3 sequence (P09382 whole entry, the tested form may be a part): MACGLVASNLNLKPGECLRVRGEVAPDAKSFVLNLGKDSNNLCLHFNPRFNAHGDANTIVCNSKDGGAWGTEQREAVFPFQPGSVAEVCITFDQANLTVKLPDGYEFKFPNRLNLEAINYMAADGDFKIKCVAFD
T2 sequence (P17931 whole entry R186A, the tested form may be a part): as the sequence (P17931 whole entry E165A, the tested form may be a part) above, with A165E, R186A counted along it

| Reduction of binding affinity of hGal3-E165A (hGal3-E165A) [fold] | Kd (hGal3-E165A; hGal3-E165A) [µM] | Binding ability (hGal3-R186A) | Kd (human galectin-1 (hGal1) [2]) | Kd [3] | Kd (human galectin-7 (hGal7) [4]) | Kd (human galectin-1 (hGal1) [5]) [µM] | Kd (human galectin-3 (hGal3)) [µM] | Kd (human galectin-7 (hGal7) [6]) | Structure (SMILES) | further results |
| --- | --- | --- | --- | --- | --- | --- | --- | --- | --- | --- |
| – | – | – | – | – | – | – | – | – | CC(=O)N[C@H]1[C@H](O[C@H]2[C@@H](O)[C@@H](CO)O[C@@H](O[C@H]3[C@H](O)[C@@H](O)C(O)O[C@@H]3CO)[C@@H]2O)O[C@H](CO)[C@@H](O[C@@H]2O[C@H](CO)[C@H](O)[C@H](O)[C@H]2O)[C@@H]1O (mixture of isomers) [Lacto-N-neotetraose (LNnT), Lacto-N-neotetraose] | Decrease of hGal1 binding (hGal1 [1]): 3 fold |
| 2.5 | 230 | lose its binding ability | ~340 µM and 340 µM | ~93 µM and 93 µM | ~270 µM and 270 µM | 6.74 | 1.44 | 6.6 µM and 6.63 µM | CC(=O)NC1C(O)OC(CO)C(O)C1OC1OC(CO)C(O)C(O)C1O (stereo not shown) [LN1, Galβ1-3GlcNAc] | LN1/LN2 ratio (Kd LN1/Kd LN2) (hGal3-E165A; hGal3-E165A, based on Kd BI values, LN1 versus LN2): 1.22 and 1.22 ^2; LN1/LN2 ratio (Kd LN1/Kd LN2) (human galectin-1 (hGal1) [2]; [9]): 0.44; LN1/LN2 ratio (Kd LN1/Kd LN2) [3, 9]: 0.35; LN1/LN2 ratio (Kd LN1/Kd LN2) (human galectin-7 (hGal7) [4]; [9]): 1.52; LN1/LN2 ratio (Kd LN1/Kd LN2) (human galectin-1 (hGal1) [5]; [10]): 0.53; LN1/LN2 ratio (Kd LN1/Kd LN2) (human galectin-3 (hGal3); [10]): 0.23; LN1/LN2 ratio (Kd LN1/Kd LN2) (human galectin-7 (hGal7) [6]; [10]): 2.97; LN1/LN2 ratio, previous study (hGal1 [7]): 0.79; LN1/LN2 ratio, previous study (CRD domain of hGal3): 0.65 ^5; LN1/LN2 ratio, previous study (hGal7; LN1 versus LN2): 2.7; LN1/LN2 binding preference (hGal7): prominent LN1-preferred binding activity; LN1/LN2 binding preference (rat galectin-2): prominent LN1-preferred binding activity |
| 8.5 | 280 | lose its binding ability | 150 µM | ~33 µM and 33 µM | ~410 µM and 410 µM | 3.59 | 0.33 | 19.7 µM | CC(=O)N[C@@H]1[C@@H](O)[C@H](O[C@@H]2O[C@H](CO)[C@H](O)[C@H](O)[C@H]2O)[C@@H](CO)O[C@H]1O [LN2, Galβ1-4GlcNAc] | – |
| – | – | – | – | – | – | – | – | – | CC(=O)N[C@H]1C(O)O[C@H](CO)[C@H](O)[C@@H]1O[C@@H]1O[C@H](CO)[C@H](O)[C@H](O)[C@H]1O (stereo partly shown) [TF antigen, Galβ1-3GalNAc] | Binding with TF antigen (hGal3): binds; Binding with TF antigen (hGal1 [8]): not |
| – | – | – | – | – | – | – | – | – | CC(=O)N[C@H]1[C@H]([C@H](O)[C@H](O)CO)O[C@@](O[C@H]2[C@@H](O)[C@@H](CO)O[C@@H](O[C@H]3[C@H](O)[C@@H](NC(C)=O)C(O)O[C@@H]3CO)[C@@H]2O)(C(=O)O)C[C@@H]1O (stereo partly drawn) [α3-SiaLacNAc] | Increase of hGal1 binding (hGal1 [1]): 10 fold |

Source: paper PMC4422656, “Structural Basis Underlying the Binding Preference of Human Galectins-1, -3 and -7 for Galβ1-3/4GlcNAc” (PLoS ONE, 2015)
